Laboratory results as given in patent US7427608B2, “Protection against and treatment of hearing loss” (The Research Foundation of State University of New York, priority 2001, dated 2008).

test system: human lung cancer cell line H460; test: Inhibition of growth of human lung cancer cell line H460; type: cell-based; conditions: NCI-H460, 72 hours, total protein/well
Text: The results are in Table 2, below.

First: O=C(NCc1ccccc1F)c1cc2cc(F)ccc2[nH]1 [Compound 1bbb]
Second: O=C(NCc1cccc(F)c1)c1[nH]c2ccc(F)cc2c1-c1ccccc1 [Compound 2g]
The IC50 of the first is higher: > 100 µM for the first, 13 ± 0.56 µM for the second. The second is the more potent here.

In the case of `O=C(NCc1cccc(O)c1)c1[nH]c2ccc(F)cc2c1-c1ccccc1` [Compound 3q], the IC50 is reported as 30 ± 0.34 µM.

target: Epidermal Growth Factor Receptor Tyrosine Kinase (EGFRTK) (Homo sapiens, UniProt P00533); test: Inhibition of EGFRTK; type: biochemical; conditions: compound at 10 micromolar
Text: (§1) Blanks for a particular enzyme indicate that inhibition was not found.

Sequence of Epidermal Growth Factor Receptor Tyrosine Kinase (EGFRTK) (P00533 25-1210): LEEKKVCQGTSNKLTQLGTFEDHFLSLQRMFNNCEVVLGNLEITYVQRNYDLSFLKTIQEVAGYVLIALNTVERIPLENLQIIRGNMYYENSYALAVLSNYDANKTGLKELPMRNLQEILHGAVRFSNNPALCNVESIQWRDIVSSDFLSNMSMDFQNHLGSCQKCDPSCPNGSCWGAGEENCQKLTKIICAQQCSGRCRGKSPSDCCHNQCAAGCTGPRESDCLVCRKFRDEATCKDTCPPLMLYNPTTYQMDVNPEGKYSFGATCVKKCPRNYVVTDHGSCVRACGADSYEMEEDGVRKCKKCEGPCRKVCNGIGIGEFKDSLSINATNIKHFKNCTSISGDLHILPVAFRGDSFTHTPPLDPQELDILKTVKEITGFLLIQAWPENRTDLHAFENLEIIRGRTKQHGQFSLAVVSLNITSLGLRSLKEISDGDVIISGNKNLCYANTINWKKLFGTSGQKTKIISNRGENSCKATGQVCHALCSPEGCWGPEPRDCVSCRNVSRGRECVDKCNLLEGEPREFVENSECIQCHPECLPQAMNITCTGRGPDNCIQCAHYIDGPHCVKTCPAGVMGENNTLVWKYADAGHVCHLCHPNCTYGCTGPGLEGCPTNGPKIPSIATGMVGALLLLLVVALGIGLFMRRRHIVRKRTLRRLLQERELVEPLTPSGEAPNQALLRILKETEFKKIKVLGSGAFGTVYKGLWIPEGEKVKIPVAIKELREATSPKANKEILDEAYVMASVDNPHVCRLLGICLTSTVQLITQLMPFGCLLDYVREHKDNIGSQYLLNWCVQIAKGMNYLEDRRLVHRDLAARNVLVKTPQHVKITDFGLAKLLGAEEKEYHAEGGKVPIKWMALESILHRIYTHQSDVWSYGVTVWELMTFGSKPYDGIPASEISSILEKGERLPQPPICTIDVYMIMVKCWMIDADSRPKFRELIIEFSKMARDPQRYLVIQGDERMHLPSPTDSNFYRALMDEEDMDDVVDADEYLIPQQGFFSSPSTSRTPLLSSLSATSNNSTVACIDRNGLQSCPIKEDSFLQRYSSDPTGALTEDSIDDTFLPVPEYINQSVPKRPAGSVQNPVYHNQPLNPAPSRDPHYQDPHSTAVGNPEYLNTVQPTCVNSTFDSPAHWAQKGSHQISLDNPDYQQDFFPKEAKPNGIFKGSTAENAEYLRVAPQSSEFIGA

Compared with `COc1cccc([C@H](C)NC(=O)c2cc3cc(F)ccc3[nH]2)c1` [Compound 1aa], `COc1ccc(CNC(=O)c2cc3cc(F)ccc3[nH]2)cc1` [Compound 1ee] is higher in inhibition at 10 µM: 12% for the first, 16% for the second.

Going from `O=C(NCc1cccc(I)c1)c1cc2cc(F)ccc2[nH]1` [Compound 1ff] to `O=C(NCc1ccc(O)c(O)c1)c1cc2cc(F)ccc2[nH]1` [Compound 1gggg], the inhibition at 10 µM rises from 24% to 25%.

Going from `Cc1ccccc1CNC(=O)c1cc2cc(F)ccc2[nH]1` [Compound 1ffff] to `O=C(NCc1ccc(Br)cc1)c1cc2cc(F)ccc2[nH]1` [Compound 1kkkk], the inhibition at 10 µM rises from 12% to 30%.

Compared with `O=C(NCc1cc(OCc2ccccc2)cc(OCc2ccccc2)c1)c1cc2cc(F)ccc2[nH]1` [Compound 1iiii], `O=C(Nc1ccc(OCc2ccccc2)c(CO)c1)c1[nH]c2ccc(F)cc2c1-c1ccccc1` [Compound 2e] is lower in inhibition at 10 µM: 12% for the first, 10% for the second.

First: CCCOc1ccc(CNC(=O)c2cc3cc(F)ccc3[nH]2)cc1O [Compound 1nnnn]
Second: CCCOc1ccc(NC(=O)c2[nH]c3ccc(F)cc3c2-c2ccccc2)cc1CO [Compound 2d]
The inhibition at 10 µM of the first is lower: 17% for the first, 23% for the second.

First: O=C(NCCCCCCO)c1cc2cc(F)ccc2[nH]1 [Compound 1qqqq]
Second: O=C(NCc1cc(F)cc(F)c1)c1[nH]c2ccc(F)cc2c1-c1ccccc1 [Compound 2y]
The inhibition at 10 µM of the first is lower: 18% for the first, 20% for the second.

Going from `O=C(NCC1(O)CCCCC1)c1[nH]c2ccc(F)cc2c1-c1ccccc1` [Compound 2b] to `O=C(NCc1cc(Br)ccc1F)c1[nH]c2ccc(F)cc2c1-c1ccccc1` [Compound 2ll], the inhibition at 10 µM falls from 19% to 10%.

Compared with `O=C(NCc1ccc(F)cc1C(F)(F)F)c1[nH]c2ccc(F)cc2c1-c1ccccc1` [Compound 2hh], `O=C(NCc1ccc(C(F)(F)F)cc1)c1[nH]c2ccc(F)cc2c1-c1ccccc1` [Compound 2j] is higher in inhibition at 10 µM: 12% for the first, 20% for the second.

target: p55 fyn (Homo sapiens, UniProt P06241); test: Inhibition of p55 fyn; type: biochemical; conditions: compound at 10 micromolar
Text: as §1

Sequence of p55 fyn (P06241 whole entry): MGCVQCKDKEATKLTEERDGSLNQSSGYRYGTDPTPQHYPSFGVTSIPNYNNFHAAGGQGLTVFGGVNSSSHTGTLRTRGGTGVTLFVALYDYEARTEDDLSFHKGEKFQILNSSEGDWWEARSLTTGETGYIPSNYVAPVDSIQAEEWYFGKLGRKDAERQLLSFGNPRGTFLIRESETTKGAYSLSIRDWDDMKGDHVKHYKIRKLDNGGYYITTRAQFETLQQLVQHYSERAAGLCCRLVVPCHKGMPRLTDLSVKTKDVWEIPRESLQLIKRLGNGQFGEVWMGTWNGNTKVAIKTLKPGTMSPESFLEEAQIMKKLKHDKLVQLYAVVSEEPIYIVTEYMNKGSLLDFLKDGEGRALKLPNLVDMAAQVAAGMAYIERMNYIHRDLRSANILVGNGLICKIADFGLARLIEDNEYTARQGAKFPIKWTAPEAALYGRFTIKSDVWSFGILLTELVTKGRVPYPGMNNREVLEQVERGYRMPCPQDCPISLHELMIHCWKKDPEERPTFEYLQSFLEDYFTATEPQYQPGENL

First: COc1cccc([C@H](C)NC(=O)c2cc3cc(F)ccc3[nH]2)c1 [Compound 1aa]
Second: Cc1cccc(Cl)c1CNC(=O)c1cc2cc(F)ccc2[nH]1 [Compound 1xx]
The inhibition at 10 µM of the first is lower: 10% for the first, 14% for the second.

Compared with `CCCN(CCC)C(=O)c1cc2cc(F)ccc2[nH]1` [Compound 1g], `CCCOc1ccc(CNC(=O)c2cc3cc(F)ccc3[nH]2)cc1O` [Compound 1nnnn] is lower in inhibition at 10 µM: 19% for the first, 11% for the second.

Compared with `O=C(NCc1cccc(C(F)(F)F)c1)c1cc2cc(F)ccc2[nH]1` [Compound 1jj], `O=C(NCc1cc(F)cc(C(F)(F)F)c1)c1cc2cc(F)ccc2[nH]1` [Compound 1mmm] is lower in inhibition at 10 µM: 18% for the first, 14% for the second.

First: O=C(Nc1ccc(Oc2ccccc2)cc1)c1cc2cc(F)ccc2[nH]1 [Compound 1k]
Second: O=C(Nc1ccc(CO)cc1)c1cc2cc(F)ccc2[nH]1 [Compound 1oo]
The inhibition at 10 µM of the first is lower: 13% for the first, 17% for the second.

Compared with `O=C(NCc1ccc([N+](=O)[O-])cc1)c1cc2cc(F)ccc2[nH]1` [Compound 1mmmm], `O=C(NCc1ccc(Cl)cc1)c1cc2cc(F)ccc2[nH]1` [Compound 1rrr] is lower in inhibition at 10 µM: 29% for the first, 15% for the second.

First: COc1cc(CNC(=O)c2cc3cc(F)ccc3[nH]2)ccc1OCc1ccccc1 [Compound 1qqq]
Second: O=C(NCCc1c[nH]c2ccccc12)c1cc2cc(F)ccc2[nH]1 [Compound 1u]
The inhibition at 10 µM of the first is higher: 11% for the first, 10% for the second.

Compared with `Cc1cc(C)cc(NC(=O)c2cc3cc(F)ccc3[nH]2)c1` [Compound 1t], `O=C(c1cc2cc(F)ccc2[nH]1)N1CCOCC1` [Compound 1w] is lower in inhibition at 10 µM: 11% for the first, 10% for the second.

Compared with `O=C(NCC1(O)CCCCC1)c1[nH]c2ccc(F)cc2c1-c1ccccc1` [Compound 2b], `O=C(NCc1ccc(F)cc1Cl)c1[nH]c2ccc(F)cc2c1-c1ccccc1` [Compound 2o] is lower in inhibition at 10 µM: 13% for the first, 12% for the second.

`O=C(NCc1ccc([N+](=O)[O-])cc1)c1[nH]c2ccc(F)cc2c1-c1ccccc1` [Compound 2kk] was tested, and the inhibition at 10 µM was 24%.
